The test system of one data set is Leishmania donovani DD8. The data set can be described thus: Hamster vaccination, Experiment 2, challenge with L. donovani. The data set is classed as in vivo, Syrian Golden hamsters. The source says:
The values for body weights were from all animals available at specific time points. Two animals were sacrificed per group per time point for assessing spleen weights and parasite loads;
Impression smears (Left panel) of cut spleens were Geimsa-stained and examined microscopically under oil immersion lens to enumerate amastigotes per 1,000 splenic nuclei as a measure of parasite loads (Right Panel). Note: Parasite loads decrease precipitously after day 45 in contrast to the control groups. The data are consistent with the data for animal body weights and spleen weights; and
The 2nd experiment was designed to verify and to strengthen the results of the 1st experiment by including 2 additional control groups. One is to treat animals with ALA alone so as to eliminate the potential contribution of this metabolite to the outcome observed. Another is to include pbgd single transfectants (ST) as an additional non-porphyric control to ascertain that the prophylactic effects observed are independent of factors specific to DT or L. amazonensis infection alone. There is some indication of this in the 1st experiment for “vaccination” of hamsters with the DT−ALA+LD group whose splenic parasite loads remained high, but the amastigotes look degenerative (FIG. 20). Except for “vaccination” on the back and illumination with white light, experimental conditions otherwise followed those in the 1st as follows:
A total of 50 Syrian Golden hamsters (40-45 gm) were used 10 per group for each of the following experimental and control groups:
Day 6 (Sep. 28, 2004): Harvest and resuspend cells for inoculation intradermally to a shaved area (˜2 cm×2 cm) on the back of the animals as follows:
Days 9-12 (Oct. 1-4, 2004): inject the same site of each animal daily 4× with 20 ul […] ALA solution
Days 13-17 (Oct. 5-9, 2004): Illuminate caged animals from 9 AM to 5 PM daily for five days under white light [Four bulbs of 100 W (Phillips)+2 tube lights of 40 W in an AC room of 6 ft×6 ft×10 ft] 2 ft above, keeping a constant temperature of 26-27° C.
[…] (Oct. 25, 2004): Challenge 9 animals of each group with 107 DD8 strain of L. donovani amastigotes/animal by intracardiac route.
Day 78 (Dec. 9, 2004): Parasitological/immunological evaluations-45 days post-challenge (FIG.).
Day 93 (Dec. 24, 2004): Parasitological/immunological evaluations-60 days post-challenge (FIG.).
Day 147 (Feb. 16, 2005): survivors left of a total of 4 animals 114 days after challenge, excluding 6 sacrificed for experimentation on days 0, 45, and 60.

Data set [1] has as its system hamster lymph node mononuclear cells. The data set can be described thus: Proliferation of lymph node cells to Con-A and Leishmania soluble antigens, tritiated thymidine. The data set is classed as cell-based. The following applies: 45 days after challenging infection, 20 ug/ml antigen. The method, then:
Lymph nodes of hamsters from experimental and control groups, as indicated, were used 45 days after challenging infection to prepare mononuclear cell-suspension (10^6/ml). Aliqouts of 100 ul were cultured in 96 well flat bottom tissue culture plates (Nunc, Denmark). 100 ul of Conconavalin A or soluble L. donovani promastigote antigens were added to each well, giving a final concentration of 10 ug/ml and 20 ug/ml, respectively. Cultures were prepared in triplicate for each sample and incubated at 37° C. and 5% CO2 for 3 days and 5 days for Con-A treated and antigen-treated cells, respectively. Eighteen hours prior to termination of incubation of cultures, 0.5 uCi of tritiated-thymidine was added to each well. Cells were harvested on to glass fiber mats (Whatman) for liquid scintillation counting.

The subject of data set [2] is J774A1 macrophages infected with alad/pbgd double transfectants. As to the kind of experiment: Intracellular transgenic amastigotes and macrophages per culture after ALA. Particulars: 1-2 mM ALA. The data set is classed as cell-based, mouse. The procedure: J774A1 cells were infected in vitro with alad/pbgd double transfectants of L. amazonensis at a promastigote-to-macrophage ratio of 10:1. Infected cultures were maintained at 35° C. with daily medium renewal for 42 days. Cultures were split equally into two, one with and the other without the addition of 1-2 mM ALA 3 times on days 2, 26 and 40 post-infection (arrows). The total number of intracellular amastigotes (left) and macrophages (right) per culture were estimated at the time points indicated, as described (Chang, 1980). Note: Decrease of intracellular amastigotes in number after the 1st 2 ALA treatments.
Intra-macrophage amastigotes are lysed selectively when rendered uroporphyric in situ, as determined by quantitative analysis of parasites and macrophages in such infected cultures (FIG. 15). This observation further strengthens the use of porphyric Leishmania as a live model for vaccine delivery. We observed this by using macrophages infected with the double transfectants. The infected cultures were split equally into 2 identical sets. In a total period of 42 days, one set received 3 separate ALA treatments, each pulsed for ˜24 hrs, at different time points after infection, while the other set received no treatments (see legend to FIG. 15 for experimental conditions). […]

Turning to `NCC(=O)CCC(=O)O` [ALA, delta-aminolevulinate], the “survivors left of a total of 4 animals” value in the data set on Leishmania donovani DD8 (114 days after challenge) is on record as 0/4. Also, the immunoprophylactic effect entry with Leishmania donovani DD8 (ALA treatment alone) was “ineffective”. In the data set with Leishmania donovani DD8 (day 45 to day 60 post challenge), the “splenic parasite loads, amastigotes in impression smears” value is “abundant in number”. In addition, the “splenomegaly by spleen weight” value in the data set with Leishmania donovani DD8 (days 45 and 60 post-challenge) is reported as “most pronounced”. In addition, the “lymph node cell response to LSA” value in data set [1] was “virtually no response”. In addition, the “growth of J774A1 macrophages” value in data set [2] was “unaffected”.

The record behind these values is US7238347B2, “Suicidal mutant Leishmania vaccine” (priority 2005, dated 2007).
